Laboratory results from PubChem BioAssay AID1023 (Columbia University Molecular Screening Center, 2008).

The compounds below were run on HUVEC TNFalpha-induced p65 nuclear translocation, imaging (assay: inhibitors of TNFa-induced NFkB p65 translocation, SAR follow-up, imaging, HUVEC (AID 1023)).

Going from `Cc1ccc2c(c1)-c1ccc3cccnc3c1NS2(=O)=O` to `COc1ccc2c(c1)-c1ccc3cccnc3c1NS2(=O)=O`, the IC50 rises from 562 nM to 992 nM (1.8-fold).

`COc1cc2ccc(C)nc2c2c1-c1cc(C)ccc1S(=O)(=O)N2` and `COc1ccc(S(=O)(=O)Nc2cccc3ccc(C)nc23)c([N+](=O)[O-])c1` are within 1.5-fold of each other in IC50: 886 nM for the first, 1020 nM for the second.

`Cc1ccc2cccc(NS(=O)(=O)c3cccc([N+](=O)[O-])c3)c2n1` and `Cc1ccc2cccc(NS(=O)(=O)c3ccc(Cl)s3)c2n1` are within 1.5-fold of each other in IC50: 912 nM for the first, 986 nM for the second.
